Results: ChEMBL document CHEMBL1201862, “PubChem BioAssay data set” (2004)
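96-well plates; 48 h exposure; 5 concentrations. Endpoints by linear interpolation between flanking doses. Not reached: highest tested concentration assigned. At the GI50, growth is halved.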 The source made the active and inactive calls. No stated cut-off is given here; in the data, active = GI50 up to about 1.1 µM and inactive = higher.

Columns and labels:
Test in all cases: NCI anticancer screen, dose series, 48 h
K562 = test system: K562
CAKI-1 = test system: CAKI-1
MOLT-4 = test system: MOLT-4
SNB-75 = test system: SNB-75
HOP-62 = test system: HOP-62
DLD-1 = test system: DLD-1
UACC-62 = test system: UACC-62
HOP-92 = test system: HOP-92
EKVX = test system: EKVX
OVCAR-8 = test system: OVCAR-8
U-251 = test system: U-251
COLO 205 = test system: COLO 205
SK-MEL-28 = test system: SK-MEL-28
SNB-78 = test system: SNB-78
HCT-15 = test system: HCT-15
HT-29 = test system: HT-29
NCI-H522 = test system: NCI-H522
BT-549 = test system: BT-549
DU-145 = test system: DU-145
MDA-N = test system: MDA-N

Compound | GI50 (K562) | GI50 (CAKI-1) | GI50 (MOLT-4) | GI50 (SNB-75) | GI50 (HOP-62) | GI50 (DLD-1) | GI50 (UACC-62) | GI50 (HOP-92) | GI50 (EKVX) | GI50 (OVCAR-8) | GI50 (U-251) | GI50 (COLO 205) | GI50 (SK-MEL-28) | GI50 (SNB-78) | GI50 (HCT-15) [µM] | GI50 (HT-29) | GI50 (NCI-H522) | GI50 (BT-549) | GI50 (DU-145) | GI50 (MDA-N)
O=C(NCCCCCCNC(=O)NC1OCC(O)C(O)C1O)NC1OCC(O)C(O)C1O (configuration not stated) | > 100 µM (inactive) | > 100 µM (inactive) | > 100 µM (inactive) | 64.9 µM (inactive) | > 100 µM (inactive) | > 100 µM (inactive) | > 100 µM (inactive) | > 100 µM (inactive) | > 100 µM (inactive) | > 100 µM (inactive) | > 100 µM (inactive) | > 100 µM (inactive) | > 100 µM (inactive) | > 100 µM (inactive) | > 100 | > 100 µM (inactive) | > 100 µM (inactive) |  |  | 
NCCc1ccc2oc3cc(=O)c4ccccc4c-3nc2c1 | 2.02 µM (inactive) | 11.5 µM (inactive) | 1.9 µM (inactive) | 2.22 µM (inactive) | 3.09 µM (inactive) | 2.04 µM (inactive) | 4.37 µM (inactive) | 7.71 µM (inactive) | 11.6 µM (inactive) | 4.91 µM (inactive) | 2.62 µM (inactive) | 0.428 µM (active) | 3.81 µM (inactive) | 9.35 µM (inactive) | 0.966 | 1.82 µM (inactive) | 2.59 µM (inactive) |  |  | 
CCN1c2ccccc2C(C(SC)S(=O)(=O)c2ccc(C)cc2)c2c1[nH]c(=O)n(C)c2=O (configuration not stated) | > 100 µM (inactive) | > 100 µM (inactive) | 94 µM (inactive) | 23.7 µM (inactive) | > 100 µM (inactive) | > 100 µM (inactive) | > 100 µM (inactive) | > 100 µM (inactive) | > 100 µM (inactive) | > 100 µM (inactive) | > 100 µM (inactive) | > 100 µM (inactive) | > 100 µM (inactive) | > 100 µM (inactive) | > 100 | > 100 µM (inactive) | > 100 µM (inactive) |  |  | 
COC(=O)C1CC(=O)CCC1c1ccccc1 (configuration not stated) | > 100 µM (inactive) | > 100 µM (inactive) | > 100 µM (inactive) | > 100 µM (inactive) | > 100 µM (inactive) | > 100 µM (inactive) | > 100 µM (inactive) | > 100 µM (inactive) | > 100 µM (inactive) | > 100 µM (inactive) | > 100 µM (inactive) | > 100 µM (inactive) | > 100 µM (inactive) | > 100 µM (inactive) | > 100 | > 100 µM (inactive) | > 100 µM (inactive) |  |  | 
CCc1cccc(C(C)C)c1NC(=O)C(=O)CC(=O)c1c(C)[n+]([O-])c2ccccc2[n+]1[O-] | > 100 µM (inactive) | > 100 µM (inactive) | 56.1 µM (inactive) | > 100 µM (inactive) | > 100 µM (inactive) | > 100 µM (inactive) | > 100 µM (inactive) | > 100 µM (inactive) | > 100 µM (inactive) | > 100 µM (inactive) | > 100 µM (inactive) | > 100 µM (inactive) | > 100 µM (inactive) | > 100 µM (inactive) | > 100 |  | > 100 µM (inactive) |  |  | 
CC(=O)OC(C)C1C2=C(C(=O)CC1(C)O)C(=O)c1c(ccc(-c3ccc4c(c3O)C(=O)C3=C(C4=O)C(C(C)OC(C)=O)C(C)(O)CC3=O)c1O)C2=O (configuration not stated) | 0.701 µM (active) | 2.82 µM (inactive) | 1.12 µM (inactive) | 2.49 µM (inactive) | 18.5 µM (inactive) | 1.11 µM (active) | 1.69 µM (inactive) | 1.57 µM (inactive) | 4.36 µM (inactive) | 2.45 µM (inactive) | 1.72 µM (inactive) | 0.692 µM (active) | 2.12 µM (inactive) | 3.18 µM (inactive) | 2.58 | 1.72 µM (inactive) | 1.56 µM (inactive) | 1.28 µM (inactive) | 5.78 µM (inactive) | 3.15 µM (inactive)
C/C(=C\COc1ccc2ccc(=O)oc2c1)C1=CC(=O)C(C)(C)O1 [GEIPARVARIN] | 4.39 µM (inactive) | 4.83 µM (inactive) | 4.14 µM (inactive) | 5.01 µM (inactive) | 5.47 µM (inactive) | 2.26 µM (inactive) | 3.94 µM (inactive) | 3.76 µM (inactive) | 5.64 µM (inactive) | 7.11 µM (inactive) | 4.3 µM (inactive) | 4.14 µM (inactive) | 4.23 µM (inactive) | 4.15 µM (inactive) | 3.04 | 4.01 µM (inactive) |  | 3.69 µM (inactive) | 2.53 µM (inactive) | 3.28 µM (inactive)
ClCCC[Si]12OCCN(CCO1)CCO2 | > 100 µM (inactive) | > 100 µM (inactive) | > 100 µM (inactive) | > 100 µM (inactive) |  | > 100 µM (inactive) | > 100 µM (inactive) | > 100 µM (inactive) | > 100 µM (inactive) | > 100 µM (inactive) | > 100 µM (inactive) | > 100 µM (inactive) | > 100 µM (inactive) | > 100 µM (inactive) |  | > 100 µM (inactive) | > 100 µM (inactive) |  |  | 
CSc1nc(SC)c2c(C#N)n[nH]c2n1 | > 100 µM (inactive) | > 100 µM (inactive) | > 100 µM (inactive) | 63.5 µM (inactive) | > 100 µM (inactive) | > 100 µM (inactive) | > 100 µM (inactive) | 48.5 µM (inactive) | > 100 µM (inactive) | > 100 µM (inactive) | > 100 µM (inactive) | > 100 µM (inactive) | > 100 µM (inactive) | > 100 µM (inactive) | > 100 | > 100 µM (inactive) | > 100 µM (inactive) |  |  | 
COC(=O)[C@@H]1CCCCC[C@H]2C(CO)=C(C)C(=O)C12 (some centres not stated) | > 100 µM (inactive) | > 100 µM (inactive) | > 100 µM (inactive) | > 100 µM (inactive) | > 100 µM (inactive) | > 100 µM (inactive) | > 100 µM (inactive) | > 100 µM (inactive) | > 100 µM (inactive) | > 100 µM (inactive) | > 100 µM (inactive) | > 100 µM (inactive) | > 100 µM (inactive) | > 100 µM (inactive) | > 100 | > 100 µM (inactive) | > 100 µM (inactive) |  |  | 
CCCCCCCCCCCCCC(=O)CBr | 3.53 µM (inactive) | 1.1 µM (active) | 0.764 µM (active) | 6.03 µM (inactive) | 21.5 µM (inactive) | 11.7 µM (inactive) | 9.79 µM (inactive) | 2.36 µM (inactive) | 18.7 µM (inactive) | 14 µM (inactive) | 14.6 µM (inactive) | 14.9 µM (inactive) | 16.5 µM (inactive) | 14.2 µM (inactive) | 11.1 | 15.9 µM (inactive) | 1.84 µM (inactive) | 8.71 µM (inactive) | 18.6 µM (inactive) | 12.3 µM (inactive)
